ChEMBL document CHEMBL5143747, “Discovery and Optimization of Triazolopyrimidinone Derivatives as Selective NLRP3 Inflammasome Inhibitors” (ACS Med Chem Lett, 2022)
pIC50: −log10 of the molar value. Converted amounts (≈) assume the structure as drawn.

Key:
[1] = molecular target: T1, NACHT, LRR and PYD domains-containing protein 3 (Homo sapiens, UniProt Q96P20); experiment: Inhibition of NLRP3 inflammasome in LPS-pretreated PBMC (unknown origin) assessed as reduction in IL-1beta release pretreated for 30 mins followed by ATP stimulated and measured after 1 hr by ELISA; assay type: cell-based; details: for pIC50: read-out: IC50; for IC50: pbmc
T1 sequence (Q96P20 whole entry, the tested form may be a part): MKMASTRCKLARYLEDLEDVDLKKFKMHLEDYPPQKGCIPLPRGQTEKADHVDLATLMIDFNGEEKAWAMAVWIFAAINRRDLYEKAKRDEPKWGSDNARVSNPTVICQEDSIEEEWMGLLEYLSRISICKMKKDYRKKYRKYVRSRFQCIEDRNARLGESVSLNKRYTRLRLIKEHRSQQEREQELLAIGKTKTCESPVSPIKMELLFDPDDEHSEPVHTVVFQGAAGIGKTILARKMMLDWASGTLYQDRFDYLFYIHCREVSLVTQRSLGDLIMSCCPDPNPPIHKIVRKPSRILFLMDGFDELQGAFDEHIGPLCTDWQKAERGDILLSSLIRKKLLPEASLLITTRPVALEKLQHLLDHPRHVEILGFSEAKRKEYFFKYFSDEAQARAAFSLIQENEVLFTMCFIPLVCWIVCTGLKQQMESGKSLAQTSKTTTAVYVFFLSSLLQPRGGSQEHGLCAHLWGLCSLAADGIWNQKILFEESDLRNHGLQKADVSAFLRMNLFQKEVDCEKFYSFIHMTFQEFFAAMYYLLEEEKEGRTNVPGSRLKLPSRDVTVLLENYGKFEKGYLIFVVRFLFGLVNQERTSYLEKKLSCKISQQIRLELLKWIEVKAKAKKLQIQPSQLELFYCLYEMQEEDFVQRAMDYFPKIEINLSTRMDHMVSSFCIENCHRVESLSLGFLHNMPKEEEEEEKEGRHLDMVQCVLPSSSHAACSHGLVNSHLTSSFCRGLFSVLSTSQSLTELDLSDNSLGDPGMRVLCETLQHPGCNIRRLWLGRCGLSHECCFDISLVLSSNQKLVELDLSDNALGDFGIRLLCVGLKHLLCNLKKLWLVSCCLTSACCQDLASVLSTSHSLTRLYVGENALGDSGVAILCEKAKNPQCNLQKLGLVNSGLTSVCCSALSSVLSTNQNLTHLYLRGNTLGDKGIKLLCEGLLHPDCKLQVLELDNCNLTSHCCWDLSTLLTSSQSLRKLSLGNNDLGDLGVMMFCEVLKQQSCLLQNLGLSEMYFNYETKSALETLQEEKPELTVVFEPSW

[2] = Protein binding in mouse plasma; assay type: ADME, cell-free; details: read-out: PPB (converted)
[3] = Protein binding in human plasma; assay type: ADME, cell-free; details: read-out: PPB (converted)
[4] = Permeability of compound in pH 7.4 phosphate buffered saline at 10 uM measured after 4 hrs by PAMPA; assay type: ADME; details: read-out: permeability
[5] = Inhibition of LPS-stimulated TNF-alpha release in human PBMC measured after 4 hrs by ELISA; assay type: toxicity, cell-based
[6] = Inhibition of LPS-stimulated IL-6 release in human PBMC measured after 4 hrs by ELISA; assay type: toxicity, cell-based
[7] = Protein binding in rat plasma; assay type: ADME, cell-free; details: read-out: PPB (converted)
[8] = Thermodynamic solubility of compound in pH 7.4 phosphate buffer incubated for 24 hrs under shaking condition by UPLC analysis; assay type: physicochemical; details: read-out: Therm_solubility
[9] = molecular target: T1, NACHT, LRR and PYD domains-containing protein 3; experiment: Inhibition of NLRP3 inflammasome in LPS-pretreated PBMC (unknown origin) assessed as reduction in IL-1beta release at 40 uM pretreated for 30 mins followed by ATP stimulated and measured after 1 hr by ELISA relative to control; assay type: cell-based; details: time 90.0 min
[10] = molecular target: T1, NACHT, LRR and PYD domains-containing protein 3; experiment: Inhibition of NLRP3 inflammasome in LPS-pretreated human THP1-ASC-GFP cells assessed as reduction in speck positive cells measured after 30 mins in presence of caspase inhibitor zVAD-FMK by Hoechst 33342 staining based confocal microscopy; assay type: cell-based
[11] = molecular target: T1, NACHT, LRR and PYD domains-containing protein 3; experiment: Inhibition of NLRP3 inflammasome in LPS-pretreated human whole blood assessed as reduction in IL-1beta release pretreated for 30 mins followed by ATP stimulated and measured after 1 hr by HTRF assay; assay type: tissue-based

| pIC50 [1] | SMILES | also measured |
| --- | --- | --- |
| < 4.40 | Cc1[nH]c2nc(Nc3c4c(cc5c3CCC5)CCC4)nn2c(=O)c1Cc1ccccc1 |  |
| 5.52 | COc1ccc(Cc2cc(=O)n3nc(Nc4c5c(cc6c4CCC6)CCC5)nc3[nH]2)cc1 |  |
|  | S=c1cc(CC2CCCCO2)[nH]c2nc(Nc3c4c(cc5c3CCC5)CCC4)nn12 (stereo not drawn) | fraction unbound [2]: 0.004; fraction unbound [3]: 0.001; Papp at 4 h, 10 µM [4]: < 0.0004 ×10⁻⁶ cm/s; pIC50 [5]: < 4.70; pIC50 [6]: < 4.70; fraction unbound [7]: 0.002; solubility thermodynamic at 24 h [8]: 730 µM (≈ 308 µg/mL) |
| < 4.40 | Cc1[nH]c2nc(Nc3c4c(cc5c3CCC5)CCC4)nn2c(=O)c1C |  |
| 5.22 | CN1CCOCC1Cc1cc(=O)n2nc(Nc3c4c(cc5c3CCC5)CCC4)nc2[nH]1 (stereo not drawn) |  |
| 5.31 | CN1CCCC(c2cc(=O)n3nc(Nc4c5c(cc6c4CCC6)CCC5)nc3[nH]2)C1 (stereo not drawn) |  |
|  | O=c1cc(Cc2ccccn2)[nH]c2nc(Nc3c4c(cc5c3CCC5)CCC4)nn12 | fraction unbound [3]: 0.002; Papp at 4 h, 10 µM [4]: < 0.018 ×10⁻⁶ cm/s; pIC50 [5]: < 4.40; pIC50 [6]: < 4.40; solubility thermodynamic at 24 h [8]: 2.4 µM (≈ 0.956 µg/mL) |
| 5.62 | N#Cc1cccc(Cc2cc(=O)n3nc(Nc4c5c(cc6c4CCC6)CCC5)nc3[nH]2)c1 |  |
| 5.06 | CCc1cc(=O)n2nc(Nc3c4c(cc5c3CCC5)CCC4)nc2[nH]1 |  |
| 5.80 | N#Cc1ccc(Cc2cc(=O)n3nc(Nc4c5c(cc6c4CCC6)CCC5)nc3[nH]2)cc1 |  |
| 5.55 | COCCc1cc(=O)n2nc(Nc3c4c(cc5c3CCC5)CCC4)nc2[nH]1 |  |
| < 4.40 | COc1c(C)[nH]c2nc(Nc3c4c(cc5c3CCC5)CCC4)nn2c1=O |  |
| < 4.40 | Cc1ccn2nc(Nc3c4c(cc5c3CCC5)CCC4)nc2n1 |  |
| 5.74 | O=c1cc(Cc2ccccc2)[nH]c2nc(Nc3c4c(cc5c3CCC5)CCC4)nn12 |  |
| 5.55 | O=c1cc(Cc2cccc(Cl)c2)[nH]c2nc(Nc3c4c(cc5c3CCC5)CCC4)nn12 |  |
| 5.00 | O=c1cc(Cc2ccc(Cl)cc2)[nH]c2nc(Nc3c4c(cc5c3CCC5)CCC4)nn12 |  |
| 5.35 | O=c1cc(CC2CCCCC2)[nH]c2nc(Nc3c4c(cc5c3CCC5)CCC4)nn12 |  |
| 5.43 | O=c1cc(Cc2ccccc2F)[nH]c2nc(Nc3c4c(cc5c3CCC5)CCC4)nn12 |  |
| 5.24 | O=c1cc(Cc2ccncc2)[nH]c2nc(Nc3c4c(cc5c3CCC5)CCC4)nn12 |  |
| 5.26 | Cn1cnc(Cc2cc(=O)n3nc(Nc4c5c(cc6c4CCC6)CCC5)nc3[nH]2)c1 |  |
| 5.47 | O=c1cc(Cc2cccnc2)[nH]c2nc(Nc3c4c(cc5c3CCC5)CCC4)nn12 |  |
|  | Cc1cc(=O)n2nc(Nc3c4c(cc5c3CCC5)CCC4)cc2[nH]1 | inhibition [9]: 57% |
| 5.72 | O=c1cc(CC2CCCCO2)[nH]c2nc(Nc3c4c(cc5c3CCC5)CCC4)nn12 (stereo not drawn) | fraction unbound [2]: 0.002; fraction unbound [3]: 0.001; Papp at 4 h, 10 µM [4]: 0.038 ×10⁻⁶ cm/s; pIC50 [5]: < 4.40; pIC50 [6]: < 4.40; pIC50 [10]: 5.89; solubility thermodynamic at 24 h [8]: 24 µM (≈ 9.73 µg/mL); pIC50 [11]: < 4.40 |
| < 4.40 | Cc1cc(=O)n2nc(Nc3c4c(cc5c3CCC5)CCC4)nc2n1C |  |
|  | N#Cc1ccccc1Cc1cc(=O)n2nc(Nc3c4c(cc5c3CCC5)CCC4)nc2[nH]1 | IC50 [1]: Nd(Insoluble) |

| pIC50 [1] | SMILES | also measured |
| --- | --- | --- |
| < 4.40 | CN1CCN(Cc2cc(=O)n3nc(Nc4c5c(cc6c4CCC6)CCC5)nc3[nH]2)CC1 |  |
|  | Cc1cc(=O)n2nc(Nc3c4c(cc5c3CCC5)CCC4)nc2[nH]1 | inhibition [9]: 70% |
| < 4.40 | Cc1c[nH]c2nc(Nc3c4c(cc5c3CCC5)CCC4)nn2c1=O |  |
| 5.06 | CN1CCOC(Cc2cc(=O)n3nc(Nc4c5c(cc6c4CCC6)CCC5)nc3[nH]2)C1 (stereo not drawn) |  |
| 5.70 | Cn1nccc1Cc1cc(=O)n2nc(Nc3c4c(cc5c3CCC5)CCC4)nc2[nH]1 |  |
| < 4.40 | Cc1[nH]c2nc(Nc3c4c(cc5c3CCC5)CCC4)nn2c(=O)c1C#N |  |
| 4.80 | Cn1cncc1Cc1cc(=O)n2nc(Nc3c4c(cc5c3CCC5)CCC4)nc2[nH]1 |  |
| 5.77 | O=c1cc(Cc2ncccn2)[nH]c2nc(Nc3c4c(cc5c3CCC5)CCC4)nn12 |  |
| 5.11 | O=c1cc(CN2CCOCC2)[nH]c2nc(Nc3c4c(cc5c3CCC5)CCC4)nn12 |  |
|  | S=c1cc(Cc2ccccn2)[nH]c2nc(Nc3c4c(cc5c3CCC5)CCC4)nn12 | fraction unbound [2]: 0.004; fraction unbound [3]: 0.019; Papp at 4 h, 10 µM [4]: < 0.018 ×10⁻⁶ cm/s; pIC50 [5]: < 4.40; pIC50 [6]: < 4.40; fraction unbound [7]: 0.015; solubility thermodynamic at 24 h [8]: 1500 µM (≈ 622 µg/mL) |
| 5.31 | Cn1cc(Cc2cc(=O)n3nc(Nc4c5c(cc6c4CCC6)CCC5)nc3[nH]2)cn1 |  |
|  | O=c1cc(Cc2ccccc2Cl)[nH]c2nc(Nc3c4c(cc5c3CCC5)CCC4)nn12 | IC50 [1]: Nd(Insoluble) |
| < 4.40 | CN1CCC(c2cc(=O)n3nc(Nc4c5c(cc6c4CCC6)CCC5)nc3[nH]2)CC1 |  |
| 5.47 | O=c1cc(CCc2ccccc2)[nH]c2nc(Nc3c4c(cc5c3CCC5)CCC4)nn12 |  |
| 5.30 | O=c1cc(CC2CCOC2)[nH]c2nc(Nc3c4c(cc5c3CCC5)CCC4)nn12 (stereo not drawn) |  |
| < 4.40 | O=c1cc(C2CCCNC2)[nH]c2nc(Nc3c4c(cc5c3CCC5)CCC4)nn12 (stereo not drawn) |  |
| < 4.40 | Cc1cc2[nH]c(Nc3c4c(cc5c3CCC5)CCC4)nn2c(=O)n1 |  |
|  | O=c1cc[nH]c2nc(Nc3c4c(cc5c3CCC5)CCC4)nn12 | inhibition [9]: 77% |
| 5.74 | Cn1ccc(Cc2cc(=O)n3nc(Nc4c5c(cc6c4CCC6)CCC5)nc3[nH]2)n1 |  |
| 5.47 | O=c1cc(CC2CCOCC2)[nH]c2nc(Nc3c4c(cc5c3CCC5)CCC4)nn12 |  |
| 5.40 | Cc1ccccc1Cc1cc(=O)n2nc(Nc3c4c(cc5c3CCC5)CCC4)nc2[nH]1 |  |
| 5.27 | O=c1cc(CC2COCCN2)[nH]c2nc(Nc3c4c(cc5c3CCC5)CCC4)nn12 (stereo not drawn) |  |
| 5.20 | O=c1cc(C2CCOCC2)[nH]c2nc(Nc3c4c(cc5c3CCC5)CCC4)nn12 |  |
| < 4.40 | O=c1cc(C2CCNCC2)[nH]c2nc(Nc3c4c(cc5c3CCC5)CCC4)nn12 |  |
